# The kinase profiling compilation of Christmann-Franck et al. (2016)
# Columns and labels:
# Experiment in all cases: radiometric filter-binding kinase assay, Kinase HotSpot
# Conditions in all cases: compound 0.5 µM; ATP 10 µM
# CDK1 CCNA2 (human) = CDK1 CCNA2 (human) (UniProt P06493+P20248)
# CDK1 CCNB1 (human) = CDK1 CCNB1 (human) (UniProt P06493+P14635)
# CDK2 CCNA2 (human) = CDK2 CCNA2 (human) (UniProt P24941+P20248)
# CDK2 CCNE1 (human) = CDK2 CCNE1 (human) (UniProt P24941+P24864)
# CDK3 CCNE1 (human) = CDK3 CCNE1 (human) (UniProt Q00526+P24864)
# CDK3 CCNE1 (human), sequence (P24864 whole entry, looked up): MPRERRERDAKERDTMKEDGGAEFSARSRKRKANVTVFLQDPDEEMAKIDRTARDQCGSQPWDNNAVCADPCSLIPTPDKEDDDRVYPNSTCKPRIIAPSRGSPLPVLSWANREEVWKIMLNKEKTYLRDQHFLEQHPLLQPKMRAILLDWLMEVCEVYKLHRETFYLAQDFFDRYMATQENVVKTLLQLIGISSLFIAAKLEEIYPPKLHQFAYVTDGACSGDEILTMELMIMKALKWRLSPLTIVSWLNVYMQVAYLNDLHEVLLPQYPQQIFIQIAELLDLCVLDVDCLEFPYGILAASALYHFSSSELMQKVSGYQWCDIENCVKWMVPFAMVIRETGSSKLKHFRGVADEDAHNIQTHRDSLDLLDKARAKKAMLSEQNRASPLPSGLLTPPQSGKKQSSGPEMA
# CDK3 CCNE1 (human), sequence (Q00526 whole entry, looked up): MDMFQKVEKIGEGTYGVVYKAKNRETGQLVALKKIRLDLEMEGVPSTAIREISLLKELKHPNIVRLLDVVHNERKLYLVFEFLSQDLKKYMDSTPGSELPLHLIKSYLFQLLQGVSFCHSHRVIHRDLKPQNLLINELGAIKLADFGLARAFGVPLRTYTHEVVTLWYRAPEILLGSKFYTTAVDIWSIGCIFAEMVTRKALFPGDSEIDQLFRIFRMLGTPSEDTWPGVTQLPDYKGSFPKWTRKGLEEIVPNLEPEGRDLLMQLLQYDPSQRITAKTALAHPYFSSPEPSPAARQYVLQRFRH
# CDK4 CCND1 (human) = CDK4 CCND1 (human) (UniProt P24385+P11802)
# CDK4 CCND3 (human) = CDK4 CCND3 (human) (UniProt P30281+P11802)
# CDK5 CDK5R1 p25 (human) = CDK5 CDK5R1 p25 (human) (UniProt Q00535+Q15078)
# CDK5 CDK5R1 p35 (human) = CDK5 CDK5R1 p35 (human) (UniProt Q00535+Q15078)
# CDK6 CCND1 (human) = CDK6 CCND1 (human) (UniProt Q00534+P24385)
# CDK6 CCND3 (human) = CDK6 CCND3 (human) (UniProt P30281+Q00534)
# CDK6 CCND3 (human), sequence (P30281 whole entry, looked up): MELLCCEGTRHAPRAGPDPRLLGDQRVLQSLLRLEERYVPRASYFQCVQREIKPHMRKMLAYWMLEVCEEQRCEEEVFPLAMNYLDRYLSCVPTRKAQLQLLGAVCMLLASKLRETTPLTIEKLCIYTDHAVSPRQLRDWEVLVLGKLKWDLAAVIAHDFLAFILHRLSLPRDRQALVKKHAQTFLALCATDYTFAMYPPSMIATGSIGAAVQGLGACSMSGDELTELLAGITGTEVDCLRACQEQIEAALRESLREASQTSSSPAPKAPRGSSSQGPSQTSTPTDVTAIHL
# CDK6 CCND3 (human), sequence (Q00534 whole entry, looked up): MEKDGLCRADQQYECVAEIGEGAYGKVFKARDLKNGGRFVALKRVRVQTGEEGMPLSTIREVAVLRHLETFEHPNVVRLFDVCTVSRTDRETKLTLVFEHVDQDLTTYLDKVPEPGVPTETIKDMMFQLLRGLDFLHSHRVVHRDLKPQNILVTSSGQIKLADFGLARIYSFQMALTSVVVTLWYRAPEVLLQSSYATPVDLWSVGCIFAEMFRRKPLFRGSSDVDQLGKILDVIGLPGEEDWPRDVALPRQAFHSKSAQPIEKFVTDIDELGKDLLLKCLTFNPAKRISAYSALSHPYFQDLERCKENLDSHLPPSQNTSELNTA
# CDK7 CCNH MNAT1 (human) = CDK7 CCNH MNAT1 (human) (UniProt P50613+P51948+P51946)
# CDK9 CCNK (human) = CDK9 CCNK (human) (UniProt O75909+P50750)
# CDK9 CCNK (human), sequence (O75909 whole entry, looked up): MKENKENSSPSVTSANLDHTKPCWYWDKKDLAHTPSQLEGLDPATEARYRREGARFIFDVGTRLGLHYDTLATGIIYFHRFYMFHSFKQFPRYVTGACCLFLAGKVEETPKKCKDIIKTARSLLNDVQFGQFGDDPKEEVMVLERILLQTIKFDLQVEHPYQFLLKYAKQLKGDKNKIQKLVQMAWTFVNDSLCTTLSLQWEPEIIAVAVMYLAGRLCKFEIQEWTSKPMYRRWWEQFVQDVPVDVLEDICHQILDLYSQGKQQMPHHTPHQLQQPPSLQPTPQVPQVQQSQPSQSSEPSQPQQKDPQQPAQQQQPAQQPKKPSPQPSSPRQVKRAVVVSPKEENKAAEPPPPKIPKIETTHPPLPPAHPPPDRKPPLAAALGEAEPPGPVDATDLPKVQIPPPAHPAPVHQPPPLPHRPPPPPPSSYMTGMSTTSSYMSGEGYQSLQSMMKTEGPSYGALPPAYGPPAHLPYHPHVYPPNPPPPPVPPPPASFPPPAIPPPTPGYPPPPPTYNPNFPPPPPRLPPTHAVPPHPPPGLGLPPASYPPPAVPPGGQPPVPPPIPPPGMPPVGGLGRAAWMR
# CDK9 CCNK (human), sequence (P50750 whole entry, looked up): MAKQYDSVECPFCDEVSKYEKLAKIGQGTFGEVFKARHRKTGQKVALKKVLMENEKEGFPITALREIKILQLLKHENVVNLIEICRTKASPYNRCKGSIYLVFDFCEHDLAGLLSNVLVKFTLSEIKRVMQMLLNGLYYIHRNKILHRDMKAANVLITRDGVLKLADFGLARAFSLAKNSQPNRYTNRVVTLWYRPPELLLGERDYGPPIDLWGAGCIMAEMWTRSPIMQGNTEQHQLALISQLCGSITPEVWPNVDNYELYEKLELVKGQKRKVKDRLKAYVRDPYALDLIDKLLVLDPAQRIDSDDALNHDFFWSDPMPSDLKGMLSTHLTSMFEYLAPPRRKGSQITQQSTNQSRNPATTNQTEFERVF
# CDK9 CCNT1 (human) = CDK9 CCNT1 (human) (UniProt P50750+O60563)
# DYRK1B (human) = DYRK1B (human) (UniProt Q9Y463)
# DYRK1B (human), sequence (Q9Y463 whole entry, looked up): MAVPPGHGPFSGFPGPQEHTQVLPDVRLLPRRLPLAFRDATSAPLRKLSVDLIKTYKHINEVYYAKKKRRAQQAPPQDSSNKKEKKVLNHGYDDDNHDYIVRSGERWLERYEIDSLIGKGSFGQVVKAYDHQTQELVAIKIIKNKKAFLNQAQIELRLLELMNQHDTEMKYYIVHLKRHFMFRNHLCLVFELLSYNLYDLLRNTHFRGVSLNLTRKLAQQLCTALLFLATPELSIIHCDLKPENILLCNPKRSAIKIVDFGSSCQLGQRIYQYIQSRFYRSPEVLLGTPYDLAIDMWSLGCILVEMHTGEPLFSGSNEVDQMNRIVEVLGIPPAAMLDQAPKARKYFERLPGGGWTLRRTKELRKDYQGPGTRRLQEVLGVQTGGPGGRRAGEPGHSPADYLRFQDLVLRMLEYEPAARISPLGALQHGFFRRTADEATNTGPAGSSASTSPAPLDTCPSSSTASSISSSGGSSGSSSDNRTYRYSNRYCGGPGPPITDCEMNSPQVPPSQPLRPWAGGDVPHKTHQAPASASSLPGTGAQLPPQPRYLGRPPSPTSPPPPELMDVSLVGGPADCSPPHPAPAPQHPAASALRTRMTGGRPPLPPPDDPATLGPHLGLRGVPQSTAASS
# LTK (human) = LTK (human) (UniProt P29376)
# MAP3K7 TAB1 (human) = MAP3K7 TAB1 (human) (UniProt O43318+Q15750)
# PRKCH (human) = PRKCH (human) (UniProt P24723)
# STK33 (human) = STK33 (human) (UniProt Q9BYT3)
# [1] = test system: FLT4 (human), P35916 [Q890H]
# [2] = test system: MAP2K6 (human), P52564 [S207E/T211E]
# [3] = test system: MKNK1 (human), Q9BUB5 [T385D; 165-205 del]
# MKNK1 (human), Q9BUB5 [T385D; 165-205 del], sequence (Q9BUB5 whole entry, looked up, stated change not applied): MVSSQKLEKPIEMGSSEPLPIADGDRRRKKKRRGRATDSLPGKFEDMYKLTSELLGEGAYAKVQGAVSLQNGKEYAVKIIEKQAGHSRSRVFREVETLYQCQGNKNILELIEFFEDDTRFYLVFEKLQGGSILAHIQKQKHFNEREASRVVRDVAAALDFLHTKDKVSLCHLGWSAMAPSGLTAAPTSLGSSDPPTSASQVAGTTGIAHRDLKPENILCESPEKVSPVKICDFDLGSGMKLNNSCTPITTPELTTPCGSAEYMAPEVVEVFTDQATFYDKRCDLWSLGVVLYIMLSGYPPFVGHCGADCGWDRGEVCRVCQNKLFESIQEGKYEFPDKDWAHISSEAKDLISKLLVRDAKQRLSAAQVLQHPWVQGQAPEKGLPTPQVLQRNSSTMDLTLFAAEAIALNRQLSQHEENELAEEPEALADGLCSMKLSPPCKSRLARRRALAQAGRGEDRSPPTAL
# [4] = test system: PRKCQ (human), Q04759 [P330L]
# CDK2 CCNA2 (human), sequence (P20248 whole entry, looked up, other chains not shown): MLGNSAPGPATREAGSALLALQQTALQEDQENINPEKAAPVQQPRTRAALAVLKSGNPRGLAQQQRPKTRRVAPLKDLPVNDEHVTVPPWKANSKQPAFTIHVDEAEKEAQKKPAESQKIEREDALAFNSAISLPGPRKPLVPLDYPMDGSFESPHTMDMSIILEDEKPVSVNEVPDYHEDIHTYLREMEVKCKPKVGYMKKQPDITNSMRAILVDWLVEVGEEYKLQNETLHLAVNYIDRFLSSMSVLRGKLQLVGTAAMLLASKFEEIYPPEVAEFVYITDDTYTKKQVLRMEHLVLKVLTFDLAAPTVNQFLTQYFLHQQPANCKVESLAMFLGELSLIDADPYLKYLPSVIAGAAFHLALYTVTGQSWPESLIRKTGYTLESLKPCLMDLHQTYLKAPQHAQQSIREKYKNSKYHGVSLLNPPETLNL
# CDK1 CCNB1 (human), sequence (P06493 whole entry, looked up): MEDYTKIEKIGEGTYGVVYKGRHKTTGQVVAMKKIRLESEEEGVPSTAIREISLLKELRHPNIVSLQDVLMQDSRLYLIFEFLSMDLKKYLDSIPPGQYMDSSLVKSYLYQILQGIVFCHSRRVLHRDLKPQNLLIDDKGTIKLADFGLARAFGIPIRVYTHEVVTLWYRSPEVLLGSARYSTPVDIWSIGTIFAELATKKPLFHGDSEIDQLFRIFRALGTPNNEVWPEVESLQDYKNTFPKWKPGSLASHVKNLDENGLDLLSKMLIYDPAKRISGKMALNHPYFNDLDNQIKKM
# CDK1 CCNB1 (human), sequence (P14635 whole entry, looked up): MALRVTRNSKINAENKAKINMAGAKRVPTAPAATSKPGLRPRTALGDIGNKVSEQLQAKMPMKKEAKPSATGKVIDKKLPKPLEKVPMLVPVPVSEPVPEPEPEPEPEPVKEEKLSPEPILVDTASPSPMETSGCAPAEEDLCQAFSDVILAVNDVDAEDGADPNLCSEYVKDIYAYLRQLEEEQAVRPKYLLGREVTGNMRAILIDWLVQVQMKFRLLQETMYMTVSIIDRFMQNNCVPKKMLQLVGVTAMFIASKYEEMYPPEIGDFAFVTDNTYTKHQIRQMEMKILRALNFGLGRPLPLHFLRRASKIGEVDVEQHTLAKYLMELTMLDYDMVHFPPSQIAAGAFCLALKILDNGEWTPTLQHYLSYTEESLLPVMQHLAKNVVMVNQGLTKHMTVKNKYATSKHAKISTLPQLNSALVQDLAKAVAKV
# CDK1 CCNA2 (human), sequence (P06493 whole entry, looked up): as the sequence (P06493 whole entry, looked up) above
# CDK1 CCNA2 (human), sequence (P20248 whole entry, looked up): as the sequence (P20248 whole entry, looked up, other chains not shown) above
# CDK2 CCNE1 (human), sequence (P24864 whole entry, looked up, other chains not shown): as the sequence (P24864 whole entry, looked up) above
compound,measurement,setting,value
Cc1cn(-c2cc(NC(=O)c3ccc(C)c(Nc4nccc(-c5cccnc5)n4)c3)cc(C(F)(F)F)c2)cn1,residual activity,CDK1 CCNA2 (human),99.7%
same,residual activity,CDK1 CCNB1 (human),97.8%
same,residual activity,CDK2 CCNA2 (human),95.5%
same,residual activity,CDK2 CCNE1 (human),98.9%
same,residual activity,CDK3 CCNE1 (human),95.2%
same,residual activity,CDK4 CCND1 (human),97%
same,residual activity,CDK4 CCND3 (human),108%
same,residual activity,CDK5 CDK5R1 p25 (human),91.7%
same,residual activity,CDK5 CDK5R1 p35 (human),105%
same,residual activity,CDK6 CCND1 (human),97.1%
same,residual activity,CDK6 CCND3 (human),128%
same,residual activity,CDK7 CCNH MNAT1 (human),109%
same,residual activity,CDK9 CCNK (human),97.9%
same,residual activity,CDK9 CCNT1 (human),94.7%
same,residual activity,DYRK1B (human),92.8%
same,residual activity,LTK (human),101%
same,residual activity,MAP3K7 TAB1 (human),89.2%
same,residual activity,PRKCH (human),121%
same,residual activity,STK33 (human),87.1%
CN1CCN(c2ccc3nc(-c4c(N)c5c(F)cccc5[nH]c4=O)[nH]c3c2)CC1,residual activity,CDK1 CCNA2 (human),93.6%
same,residual activity,CDK1 CCNB1 (human),90.9%
same,residual activity,CDK2 CCNA2 (human),91%
same,residual activity,CDK2 CCNE1 (human),92.3%
same,residual activity,CDK3 CCNE1 (human),92.3%
same,residual activity,CDK4 CCND1 (human),79.5%
same,residual activity,CDK4 CCND3 (human),89.6%
same,residual activity,CDK6 CCND1 (human),74.6%
same,residual activity,CDK6 CCND3 (human),31.9%
same,residual activity,CDK7 CCNH MNAT1 (human),104%
same,residual activity,CDK9 CCNK (human),91.1%
same,residual activity,CDK9 CCNT1 (human),97.7%
same,residual activity,DYRK1B (human),87.9%
same,residual activity,LTK (human),92.5%
same,residual activity,MAP3K7 TAB1 (human),19.3%
same,residual activity,PRKCH (human),103%
same,residual activity,STK33 (human),60.7%
CO[C@H]1CC2CC[C@@H](C)[C@@](O)(O2)C(=O)C(=O)N2CCCC[C@H]2C(=O)OC([C@H](C)C[C@@H]2CC[C@@H](O)[C@H](OC)C2)CC(=O)[C@H](C)/C=C(\C)[C@@H](O)[C@@H](OC)C(=O)[C@H](C)C[C@H](C)/C=C/C=C/C=C/1C (stereo partly drawn),residual activity,[1],116%
same,residual activity,[2],107%
same,residual activity,[3],101%
same,residual activity,[4],126%
Cn1sc(=O)n(Cc2ccccc2)c1=O,residual activity,[1],86.8%
same,residual activity,[2],94.9%
same,residual activity,[3],98.6%
same,residual activity,[4],100%
Nc1nc(Nc2ccc(S(N)(=O)=O)cc2)nn1C(=S)Nc1c(F)cccc1F,residual activity,[1],3.75%
same,residual activity,[2],62.7%
same,residual activity,[3],23.4%
same,residual activity,[4],15.1%
O=c1cc(N2CCNCC2)oc2c(-c3ccccc3)cccc12,residual activity,[1],104%
same,residual activity,[2],96.2%
same,residual activity,[3],107%
same,residual activity,[4],117%
CCN(CC)CCCCN1c2ccccc2Oc2ccc(Cl)cc21,residual activity,[1],98.8%
same,residual activity,[2],102%
same,residual activity,[3],95.6%
same,residual activity,[4],97.5%
O=C1c2ccccc2-c2n[nH]c3cccc1c23,residual activity,CDK1 CCNA2 (human),85.6%
same,residual activity,CDK1 CCNB1 (human),63.4%
same,residual activity,CDK2 CCNA2 (human),76.1%
same,residual activity,CDK2 CCNE1 (human),79.5%
same,residual activity,CDK3 CCNE1 (human),94.3%
same,residual activity,CDK4 CCND1 (human),96.3%
same,residual activity,CDK4 CCND3 (human),104%
same,residual activity,CDK6 CCND1 (human),88.6%
same,residual activity,CDK6 CCND3 (human),88.6%
same,residual activity,CDK7 CCNH MNAT1 (human),94.7%
same,residual activity,CDK9 CCNK (human),96%
same,residual activity,CDK9 CCNT1 (human),99.3%
same,residual activity,DYRK1B (human),65.7%
same,residual activity,LTK (human),77.8%
same,residual activity,MAP3K7 TAB1 (human),59.3%
same,residual activity,PRKCH (human),87.6%
same,residual activity,STK33 (human),47.7%
NCCNc1ncc(C(N)=O)c(Nc2cccc(C(F)(F)F)c2)n1,residual activity,CDK1 CCNA2 (human),88.3%
same,residual activity,CDK1 CCNB1 (human),81.7%
same,residual activity,CDK2 CCNA2 (human),97.6%
same,residual activity,CDK2 CCNE1 (human),89%
same,residual activity,CDK3 CCNE1 (human),95.3%
same,residual activity,CDK4 CCND1 (human),108%
same,residual activity,CDK4 CCND3 (human),94.8%
same,residual activity,CDK5 CDK5R1 p25 (human),92.4%
same,residual activity,CDK5 CDK5R1 p35 (human),84.2%
same,residual activity,CDK6 CCND1 (human),94.6%
same,residual activity,CDK6 CCND3 (human),100%
same,residual activity,CDK7 CCNH MNAT1 (human),98.5%
same,residual activity,CDK9 CCNK (human),95.6%
same,residual activity,CDK9 CCNT1 (human),82%
same,residual activity,DYRK1B (human),85.9%
same,residual activity,LTK (human),84.8%
same,residual activity,MAP3K7 TAB1 (human),71.2%
same,residual activity,STK33 (human),81.9%
Cn1cnc2cc3c(Nc4cccc(Br)c4)ncnc3cc21,residual activity,[1],89.7%
same,residual activity,[2],104%
same,residual activity,[3],39.9%
same,residual activity,[4],96.9%
CC(C)n1cnc2c(Nc3cccc(Cl)c3)nc(NCCO)nc21,residual activity,[1],92.6%
same,residual activity,[2],88.9%
same,residual activity,[3],98.7%
same,residual activity,[4],91.4%
O=C(Nc1cccc(Nc2cc(Nc3cccc(C(F)(F)F)c3)ncn2)c1)C1CC1,residual activity,[1],107%
same,residual activity,[2],108%
same,residual activity,[3],96.7%
same,residual activity,[4],87.8%
c1ccc(-c2n[nH]cc2-c2ccnc3ccccc23)nc1,residual activity,[1],92.2%
same,residual activity,[2],138%
same,residual activity,[3],75.9%
same,residual activity,[4],115%
CCN(CC)CCNC(=O)c1c(C)[nH]c(/C=C2\C(=O)Nc3ccc(Cl)cc32)c1C,residual activity,[1],12.1%
same,residual activity,[2],86.2%
same,residual activity,[3],75.4%
same,residual activity,[4],105%
O=C1Nc2ccccc2/C1=C1\Nc2ccccc2\C1=N/O,residual activity,[1],53%
same,residual activity,[2],83.5%
same,residual activity,[3],99.6%
same,residual activity,[4],99.1%
COc1ccc2c(c[n+](C)c3c4cc5c(cc4ccc23)OCO5)c1OC,residual activity,[1],97.6%
same,residual activity,[2],95%
same,residual activity,[3],102%
same,residual activity,[4],99.9%
O=c1cc(-c2cccc3c2Sc2ccccc2S3)oc(N2CCOCC2)c1,residual activity,[1],104%
same,residual activity,[2],107%
same,residual activity,[3],99.5%
same,residual activity,[4],112%
Cn1nc2c3c(cccc31)C(=O)c1ccccc1-2,residual activity,[1],86.8%
same,residual activity,[2],96.4%
same,residual activity,[3],105%
same,residual activity,[4],106%
Cc1nc2cc3nc(-c4cccs4)cnc3cc2n1C,residual activity,[1],86.2%
same,residual activity,[2],104%
same,residual activity,[3],92.7%
same,residual activity,[4],100%
CCN1/C(=C/C(C)=O)Sc2ccc(OC)cc21,residual activity,[1],99.7%
same,residual activity,[2],86.7%
same,residual activity,[3],119%
same,residual activity,[4],95.9%
NC(=O)c1ccc(N(C(N)=O)c2c(F)cccc2F)nc1-c1ccc(F)cc1F,residual activity,[1],97.5%
same,residual activity,[2],96.5%
same,residual activity,[3],91.4%
same,residual activity,[4],85.1%
COc1cc2ncc(-c3ccccc3)nc2cc1OC,residual activity,[1],90.4%
same,residual activity,[2],94.9%
same,residual activity,[3],104%
same,residual activity,[4],101%
O=C(Nc1ccc(Cl)cc1)c1ccccc1NCc1ccncc1,residual activity,[1],44.8%
same,residual activity,[2],117%
same,residual activity,[3],118%
same,residual activity,[4],110%
COc1cc2nccc(Oc3ccc(NC(=S)NC(=O)c4ccccc4C)cc3)c2cc1OC,residual activity,[1],73.8%
same,residual activity,[2],94.9%
same,residual activity,[3],93.2%
same,residual activity,[4],107%
FC(F)(F)c1ccc(/C=C/c2nc(COc3ccc(CCCCn4ccnn4)cc3)co2)cc1,residual activity,[1],98%
same,residual activity,[2],100%
same,residual activity,[3],89.5%
same,residual activity,[4],99.9%
COc1cc2ncnc(Nc3cccc(Cl)c3)c2cc1OC,residual activity,[1],99.3%
same,residual activity,[2],88.7%
same,residual activity,[3],80.8%
same,residual activity,[4],105%
CCc1nc(-c2ccc(OC)cc2)[nH]c1-c1ccncc1,residual activity,[1],123%
same,residual activity,[2],110%
same,residual activity,[3],115%
same,residual activity,[4],121%
